Results as given in ChEMBL document CHEMBL1144063, “ent-kaurane diterpenoids from Isodon lungshengensis” (J Nat Prod, 1999).
In brackets after ≈: the same amount, converted by molar mass.

System: K562
Assay: Cytotoxicity against human K-562 cells by MTT assay
Assay type: functional, cell-based

Row | SMILES | IC50 [mg/L]
1 | C=C1C(=O)[C@@]23CC(=O)[C@@H]4C(C)(C)[C@@H](OC(C)=O)[C@@H](OC(C)=O)[C@H](O)[C@@]4(C)[C@@H]2[C@@H](O)C[C@@H]1C3 [LUNGSHENGENIN G] | 3.29 (≈ 7.34 µM)
2 | C=C1C(=O)[C@]23C[C@H]1C[C@H](O)[C@H]2[C@@]1(C)[C@H]([C@@H](O)C3)C(C)(C)[C@@H](OC(C)=O)[C@@H](OC(C)=O)[C@@H]1O [LUNGSHENGENIN A] | 11.7 (≈ 26 µM)
3 | C=C1C(=O)[C@]23C[C@H]1C[C@H](O)[C@H]2[C@]1(C)C[C@H](OC(C)=O)[C@H](OC(C)=O)C(C)(C)[C@H]1[C@@H](OC(C)=O)C3 [LUNGSHENGENIN C] | 1.14 (≈ 2.39 µM)
